# Activity calls are given as the source filed them. The rule behind the calls is not given here.
# Legend:
# [1] = molecular target: 4-amino-4-deoxychorismate synthase (Escherichia coli); assay: Inhibition of ADCS
# [2] = tested on: 4-amino-4-deoxychorismate synthase ADCS/PabB (Escherichia coli); assay: Inhibition of ADCS
SMILES,Ki [1],Activity [2]
CC(=O)N[C@@H](CCCCNC(=O)c1cccc(OCC(=O)O)c1)C(N)=O,31000 µM,–
O=C(O)CCC1=CC(CCC(=O)O)CCC1=O (centres undefined),–,inactive
O=C(O)COc1ccc(C(=O)O)cc1,100000 µM,–
CC(=O)N[C@@H](CCCCNCc1cccc(OCC(=O)O)c1)C(N)=O,38000 µM,–
O=C(O)CCNc1ccc(C(=O)O)cc1,13000 µM,–
NC(=O)c1cccc(OCC(=O)O)c1,32000 µM,–
NC(=O)C1(NC(=O)[C@H](CCCCNC(=O)c2cccc(OCC(=O)O)c2)NC(=O)c2ncccc2C(=O)c2ccccc2)CCCCC1,3900 µM,–
O=C(O)COc1cccc(C(=O)O)c1,37000 µM,–

# Continued by falling Ki [1], values first:
Ki [1],Activity [2],SMILES
3000 µM,–,O=C(O)CNc1cc(C(=O)O)ccc1F
2000 µM,–,O=C(O)c1ccc(=O)oc1
1700 µM,–,Cc1ccc(C(=O)N[C@@H](CCCCNC(=O)c2cccc(OCC(=O)O)c2)C(=O)NCC(C(N)=O)C2CCCCC2)c([N+](=O)[O-])c1O (some centres undefined)
1500 µM,–,Cc1ccc(C(=O)N[C@@H](CCCCNC(=O)c2cccc(OCC(=O)O)c2)C(=O)N[C@@H](Cc2cccc(Cl)c2)C(=O)NCCOCCOCCNC(=O)CCC(=O)N2CCN(CC(N)=O)CC2)c([N+](=O)[O-])c1O
1400 µM,–,CC(C(=O)N[C@@H](CCCCNC(=O)c1cccc(OCC(=O)O)c1)C(=O)NCCc1cccc2c1oc1c(CCC(=O)NCCOCCOCCNC(=O)CCC(=O)N3CCN(CC(N)=O)CC3)cccc12)c1ccc([N+](=O)[O-])cc1 (some centres undefined)
1100 µM,–,NC(=O)C1(NC(=O)[C@H](CCCCNC(=O)c2cccc(OCC(=O)O)c2)NC(=O)c2cc(O)cc(O)c2)CCCCC1
770 µM,–,Cc1ccc(C(=O)N[C@@H](CCCCNC(=O)c2cccc(OCC(=O)O)c2)C(=O)N[C@@H](Cc2cccc(Cl)c2)C(N)=O)c([N+](=O)[O-])c1O
720 µM,–,COc1cccc(OC)c1C(=O)N[C@@H](CCCCNC(=O)c1cccc(OCC(=O)O)c1)C(=O)N[C@@H](Cc1ccc([N+](=O)[O-])c(O)c1)C(N)=O
710 µM,–,NC(=O)C1(NC(=O)[C@H](CCCCNC(=O)c2cccc(OCC(=O)O)c2)NC(=O)c2ccc(Oc3ccccc3)cc2)CCS(=O)(=O)CC1
540 µM,–,Cc1ccc(C(=O)N[C@@H](CCCCNC(=O)c2cccc(OCC(=O)O)c2)C(=O)N[C@@H](Cc2ccc(C#N)cc2)C(N)=O)c([N+](=O)[O-])c1O
360 µM,–,CC(C(=O)N[C@@H](CCCCNC(=O)c1cccc(OCC(=O)O)c1)C(=O)NCCc1cccc2c1oc1c(CCC(N)=O)cccc12)c1ccc([N+](=O)[O-])cc1 (some centres undefined)

# From ChEMBL document CHEMBL1138215, “Aminodeoxychorismate synthase inhibitors from one-bead one-compound combinatorial libraries: "staged" inhibitor design” (J Med Chem, 2006)
